Tests used:
CCRF-CEM [1] = experiment: Anti-HIV activity against HIV-1 infected CEM/0 cell lines.; assay type: functional, cell-based; conditions: Homo sapiens
JM1 [2] = experiment: Anti-HIV activity against HIV-1 infected JM cell lines; assay type: functional, cell-based
CCRF-CEM [3] = experiment: Anti-HIV activity against HIV-2 infected CEM/0 cell lines.; assay type: functional, cell-based; conditions: Homo sapiens
C8166 [4] = experiment: Anti-HIV activity against HIV-1 infected C8166 cell lines; assay type: functional, cell-based, Human immunodeficiency virus 1
C8166 [5] = experiment: Cytotoxicity in C8166 cell lines; assay type: functional, Homo sapiens
JM1 [6] = experiment: Concentration required to reduce cell viability of JM cells by 50%; assay type: functional, Homo sapiens
CCRF-CEM [7] = experiment: Concentration required to reduce cell viability of CEM/0 cells by 50%; assay type: functional; conditions: Homo sapiens
CEM-TK(-) = experiment: Anti-HIV activity against HIV-2 infected CEM/TK- cell lines.; conditions: Homo sapiens
[8] = target: Human immunodeficiency virus type 1 reverse transcriptase (Human immunodeficiency virus 1, UniProt Q72547); experiment: Inhibition of HIV-1 reverse transcriptase
C8166 [9] = experiment: Concentration of compound required to reduce cell viability of C8166 cells by 50%; assay type: functional; conditions: Homo sapiens
MT2 [10] = experiment: Concentration required to reduce cell viability of MT2 cells by 50%; assay type: functional; conditions: Homo sapiens
MT2 [11] = experiment: Anti-HIV activity against HIV-2 infected MT2 cell lines; assay type: functional, cell-based, Homo sapiens

Compound | EC50 (CCRF-CEM [1]) [µM] | EC50 (JM1 [2]; Homo sapiens, JM1) [µM] | EC50 (CCRF-CEM [3]) [µM] | EC50 (C8166 [4]; Homo sapiens, C8166) [µM] | CC50 (C8166 [5]; Homo sapiens, C8166) [µM] | CC50 (JM1 [6]; Homo sapiens, JM1) [µM] | CC50 (CCRF-CEM [7]) [µM] | EC50 (CEM-TK(-)) [µM] | IC50 [8] [µM] | CC50 (C8166 [9]) [µM] | CC50 (MT2 [10]) [µM] | EC50 (MT2 [11]; Homo sapiens, MT2) [µM] | EC50 (JM1 [2]; jm1) [µM] | EC50 (C8166 [4]; c8166) [µM] | CC50 (C8166 [5]) [µM] | CC50 (JM1 [6]) [µM] | EC50 (MT2 [11]; mt2) [µM]
CSCO[C@@]1(C)CO[C@@](C)(CC(=O)OC[C@H]2O[C@@H](n3cc(C)c(=O)[nH]c3=O)C[C@@H]2O)C1 | 200 | 200 | 88 | 200 | 1000 | 400 | > 250 | > 250 | > 100 |  |  |  |  |  |  |  | 
CSCO[C@@]1(C)CO[C@@](C)(CC(=O)OC[C@H]2O[C@@H](n3cc(C)c(=O)[nH]c3=O)C[C@@H]2O[Si](C)(C)C(C)(C)C)C1 | > 10 | 16 | > 10 | 16 | 80 | 80 | 36 |  | > 100 |  |  |  |  |  |  |  | 
CSCO[C@@]1(C)CO[C@](C)(CC(=O)OC[C@H]2O[C@@H](N3C=C(C)CNC3=O)C[C@@H]2O)C1 | 6 | 200 | 3.1 | 16 |  | 400 | > 250 | > 250 | > 100 | 400 |  |  |  |  |  |  | 
Cc1cn([C@H]2C[C@H](O)[C@@H](COC(=O)C[C@@]3(C)C[C@@](C)(O)CO3)O2)c(=O)[nH]c1=O |  | 500 |  | > 1000 | > 1000 | > 1000 |  |  |  |  | > 1000 | 1000 |  |  |  |  | 
CC1=CN([C@H]2C[C@H](O)[C@@H](COC(=O)C[C@@]3(C)C[C@@](C)(O)CO3)O2)C(=O)NC1 |  | 40 |  | 8 | > 500 | > 500 |  |  |  |  | > 1000 | 4 |  |  |  |  | 
Cc1cn([C@H]2C[C@H](O[Si](C)(C)C(C)(C)C)[C@@H](CO)O2)c(=O)[nH]c1=O |  | 20 |  | 16 | 400 | 400 |  |  |  |  |  |  |  |  |  |  | 
CSCOC1(C)COC(C)(CC(=O)OC[C@H]2O[C@@H](n3cc(C)c(=O)[nH]c3=O)C[C@@H]2N=[N+]=[N-])C1 (some centres undefined) | 0.2 | 100 | 0.14 | 0.32 |  | 500 | 233 | > 250 | > 100 | 500 |  |  |  |  |  |  | 
CSCOC1(C)COC(C)(CC(=O)NC[C@@H]2C=C[C@H](n3cc(C)c(=O)[nH]c3=O)O2)C1 (some centres undefined) |  | 500 |  | 400 | > 1000 | > 1000 |  |  |  |  | > 1000 | 200 |  |  |  |  | 
CSCOC1(C)COC(C)(CC(=O)O)C1 (centres undefined) | > 250 | > 1000 | > 250 | > 1000 | > 1000 | > 1000 | > 250 | > 250 | > 100 |  |  |  |  |  |  |  | 
Cc1cn([C@H]2C[C@H](N=[N+]=[N-])[C@@H](COC(=O)CC3(C)CC(C)(O)CO3)O2)c(=O)[nH]c1=O (stereo in doubt; 13) |  |  |  |  |  |  |  |  |  |  |  |  | 200 | 0.04 | 500 | 1000 | 
Cc1cn([C@H]2C[C@H](O[Si](C)(C)C(C)(C)C)[C@@H](COC(=O)CC3(C)CC(C)(O)CO3)O2)c(=O)[nH]c1=O (stereo in doubt; form 1) |  | 20 |  | 20 | 200 | 200 |  |  |  |  | 200 | 20 |  |  |  |  | 
Cc1cn([C@H]2C=C[C@@H](CNC(=O)CC3(C)CC(C)(O)CO3)O2)c(=O)[nH]c1=O (stereo in doubt; form 1) |  |  |  | 500 | > 500 | > 500 |  |  |  |  | > 500 | 500 | 200 |  |  |  | 
Cc1cn([C@H]2C[C@H](N=[N+]=[N-])[C@@H](COC(=O)CC3(C)CC(C)(O)CO3)O2)c(=O)[nH]c1=O (stereo in doubt; form 1) |  |  |  |  |  |  |  |  |  |  |  |  | 100 | 0.064 |  | > 1000 | 0.064
Cc1cn([C@H]2C[C@H](O[Si](C)(C)C(C)(C)C)[C@@H](COC(=O)CC3(C)CC(C)(O)CO3)O2)c(=O)[nH]c1=O (stereo in doubt; form 2) |  |  |  |  |  |  |  |  |  |  |  |  | 10 | 10 |  |  | 10
Cc1cn([C@H]2C=C[C@@H](CNC(=O)CC3(C)CC(C)(O)CO3)O2)c(=O)[nH]c1=O (stereo in doubt; form 2) |  |  |  |  |  |  |  |  |  |  |  |  | 500 | > 500 |  |  | > 500
Cc1cn([C@H]2C[C@H](N=[N+]=[N-])[C@@H](COC(=O)CC3(C)CC(C)(O)CO3)O2)c(=O)[nH]c1=O (stereo in doubt; form 2) |  |  |  |  | > 1000 |  |  |  |  |  | > 1000 |  | 400 | 8 |  | 400 | 4
Cc1cn([C@H]2C[C@H](N=[N+]=[N-])[C@@H](CO)O2)c(=O)[nH]c1=O [ZIDOVUDINE] |  | 200 |  |  | > 1000 | > 1000 | > 250 | > 250 | > 100 |  |  |  |  |  |  |  | 
